In one test the target is T1, VEGFR2 (KDR) (Homo sapiens, UniProt P35968).
T1 construct: made in house; host or cells: Sf9 cells (Spodoptera frugiperda), recombinant baculovirus
Description: In Vitro Receptor Tyrosine Kinase Assay (VEGF receptor KDR), DELFIA. The settings on record: recombinant GST-VEGFR2 806-1356, enzyme 5 nM, ATP 0.6 uM (2x Km), poly(Glu4,Tyr) substrate; read-out: VEGFR_IC50_UM. The test is classed as biochemical. An excerpt: This test measures the ability of compounds to inhibit the enzymatic activity of recombinant human VEGF receptor enzymatic activity.
A 1.6-kb cDNA corresponding to the catalytic domain of VEGFR2 (KDR) (Genbank accession number AF035121 amino acid 806 to 1356) is cloned into the Pst I site of the pDEST20 Gateway vector (Invitrogen) for the production of a GST-tagged version of that enzyme. This construct is used to generate recombinant baculovirus using the Bac-to-Bac™ system according to the manufacturer's instructions (Invitrogen).
The GST-VEGFR2806-1356 protein is expressed in Sf9 cells (Spodoptera frugiperda) upon infection with recombinant baculovirus construct. Briefly, Sf9 cells grown in suspension and maintained in serum-free medium (Sf900 II supplemented with gentamycin) at a cell density of about 2×10^6 cells/ml are infected with the above-mentioned viruses at a multiplicity of infection (MOI) of 0.1 during 72 hours at 27° C. with agitation at 120 rpm on a rotary shaker. Infected cells are harvested by centrifugation at 398 g for 15 min. Cell pellets are frozen at −80° C. until purification is performed.
All steps described in cell extraction and purification are performed at 4° C. Frozen Sf9 cell pellets infected with the GST-VEGFR2806-1356 recombinant baculovirus are thawed and gently resuspended in Buffer A (PBS pH 7.3 supplemented with 1 μg/ml pepstatin, 2 μg/ml Aprotinin and leupeptin, 50 μg/ml PMSF, 50 μg/ml TLCK and 10 μM E64 and 0.5 mM DTT) using 3 ml of buffer per gram of cells. Suspension is Dounce homogenized and 1% Triton X-100 is added to the homogenate after which it is centrifuged at 22500 g, 30 min., 4° C. The supernatant (cell extract) is used as starting material for purification of GST-VEGFR2806-1356.
The supernatant is loaded onto a GST-agarose column (Sigma) equilibrated with PBS pH 7.3. Following a four column volume (CV) wash with PBS pH 7.3+1% Triton X-100 and 4 CV wash with buffer B (50 mM Tris pH 8.0, 20% glycerol and 100 mM NaCl), bound proteins are step eluted with 5 CV of buffer B supplemented with 5 mM DTT and 15 mM glutathion. GST-VEGFR2806-1356 enriched fractions from this chromatography step are pooled based on U.V. trace i.e. fractions with high O.D.280. Final GST-VEGFR2806-1356 protein preparations concentrations are about 0.7 mg/ml with purity approximating 70%. Purified GST-VEGFR2806-1356 protein stocks are aliquoted and frozen at −80° C. prior to use in enzymatic assay.
Inhibition of VEGFR/KDR is measured in a DELFIA™ assay (Perkin Elmer). The substrate poly(Glu4, Tyr) is immobilized onto black high-binding polystyrene 96-well plates. The coated plates are washed and stored at 4° C. During the assay, the enzyme is pre-incubated with inhibitor and Mg-ATP on ice in polypropylene 96-well plates for 4 minutes, and then transferred to the coated plates. The subsequent kinase reaction takes place at 30° C. for 10-30 minutes. ATP concentrations in the assay are 0.6 uM for VEGFR/KDR (2× the Km). Enzyme concentration is 5 nM. After incubation, the kinase reactions are quenched with EDTA and the plates are washed. Phosphorylated product is detected by incubation with Europium-labeled anti-phosphotyrosine MoAb. After washing the plates, bound MoAb is detected by time-resolved fluorescence in a Gemini SpectraMax reader (Molecular Devices). Compounds are evaluated over a range of concentrations, and IC50 values (concentration of compounds giving 50% inhibition of enzymatic activity) are determined.

Test [1] concerns VEGF-dependent phospho ERK1/2 (T202/Y204) in HUVEC cells. The test is described as follows: VEGF-Dependent Erk Phosphorylation in HUVEC cells. The test is classed as cell-based. To be noted: Homo sapiens, 1.5 h compound exposure, VEGF165 150 ng/ml, Western blot densitometry, read-out: P_ERK_IC50_UM. The text has this: HUVEC cells are purchased from Cambrex Bio Science Walkersville, Inc and cultured according to the vendor's instructions. The full-length coding sequence of VEGF165 is cloned using the Gateway Cloning Technology (Invitrogen) for baculovirus expression Sf9 cells. VEGF165 is purified from conditioned media using a NaCl gradient elution from a HiTrap heparin column (GE Healthcare Life Sciences) followed by an imidazole gradient elution from a HiTrap chelating column (GE Healthcare Life Sciences), then buffer stored in PBS supplemented with 0.1% BSA and filter sterilized
Cells are seeded at 8000 cells/well of a 96 wells plate and grown for 48 hours. Cells are then grown overnight in serum and growth factor-free medium and exposed for 1.5 h to compounds dilutions. Following a 15 min incubation in medium, VEGF165 (150 ng/ml) cells are lysed in ice-cold lysis buffer (50 mM HEPES, pH 7.4, 150 mM NaCl, 1.5 mM MgCl2, 1% Triton X-100, 10% glycerol) containing 1 mM 4-(2 aminoethyl)benzenesulfonyl fluoride hydrochloride, 200 μM sodium orthovanadate, 1 mM sodium fluoride, 10 μg/mL leupeptin, 10 μg/mL aprotinin, 1 μg/mL pepstatin and 50 μg/mL Na-p-tosyl-L-lysine chloromethyl ketone hydrochloride and processed as Western blots to detect anti-phospho ERK1/2 (T202/Y204)(Cell Signaling Technologies). […]
For orientation: In western blotting, separated proteins are transferred to a membrane and probed.

T1 sequence (P35968 806-1356): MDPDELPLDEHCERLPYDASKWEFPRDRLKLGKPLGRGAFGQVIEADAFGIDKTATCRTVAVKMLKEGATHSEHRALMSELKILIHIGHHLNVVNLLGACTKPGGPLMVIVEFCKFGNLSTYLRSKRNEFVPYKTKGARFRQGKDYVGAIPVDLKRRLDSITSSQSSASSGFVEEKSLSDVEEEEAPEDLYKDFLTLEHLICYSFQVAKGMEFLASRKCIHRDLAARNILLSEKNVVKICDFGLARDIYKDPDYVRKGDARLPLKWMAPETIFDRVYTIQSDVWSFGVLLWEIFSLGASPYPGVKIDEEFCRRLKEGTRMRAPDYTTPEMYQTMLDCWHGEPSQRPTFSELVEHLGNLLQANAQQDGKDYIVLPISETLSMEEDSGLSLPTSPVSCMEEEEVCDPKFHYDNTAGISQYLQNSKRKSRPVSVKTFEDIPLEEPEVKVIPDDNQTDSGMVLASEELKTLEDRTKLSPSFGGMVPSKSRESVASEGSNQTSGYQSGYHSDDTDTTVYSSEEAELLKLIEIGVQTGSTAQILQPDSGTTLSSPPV

In the case of `O=C1CCCN1Cc1ccc(-c2cc3nccc(Oc4ccc5oc(Nc6cccc(F)c6)nc5c4)c3s2)nc1` [Compound 56], the IC50 at VEGFR2 (KDR) was 29 nM.

For the molecule `Clc1ccc(Nc2nc3cc(Oc4ccnc5cc(-c6ccc(CNc7ccc(OCCN8CCOCC8)cc7)cn6)sc45)ccc3o2)cc1` [Compound 18], the IC50 at VEGFR2 (KDR) came to 23 nM. With `O=C1CCCN1Cc1ccc(-c2cc3nccc(Oc4ccc5oc(Nc6ccccc6Cl)nc5c4)c3s2)nc1` [Compound 54], the IC50 at VEGFR2 (KDR) was 139 nM.

On to `Clc1ccc(Nc2nc3cc(Oc4ccnc5cc(-c6ccc(CNc7cc[nH]n7)cn6)sc45)ccc3o2)cc1` [Compound 17], for which the IC50 on VEGFR2 (KDR) was 41.3 nM.

For `O=C1CCCN1Cc1ccc(-c2cc3nccc(Oc4ccc5oc(Nc6ccc(C(F)(F)F)cc6)nc5c4)c3s2)nc1` [Compound 52], the IC50 on VEGFR2 (KDR) amounted to 6 nM.

`COc1ccc(Nc2nc3cc(Oc4ccnc5cc(-c6ccc(CN7CCCC7=O)cn6)sc45)ccc3o2)cc1` [Compound 53]: on VEGFR2 (KDR), the IC50 turned out to be 3 nM. Still for that read-out and setting: as for `CCN(CC)CCNC(=O)c1ccc(NCc2ccc(-c3cc4nccc(Oc5ccc6oc(Nc7ccc(Cl)cc7)nc6c5)c4s3)nc2)cc1` [Compound 16, 4-((6-(7-(2-(4-Chlorophenylamino)benzo[d]oxazol-5-yloxy)thieno[3,2-b]pyridin-2-yl)pyridin-3-yl)methyl)amino-N-(2-(diethylamino)ethyl)benzamide], the figure is 16 nM. `Clc1ccc(Nc2nc3cc(Oc4ccnc5cc(-c6ccc(CNc7cccc(OCCN8CCOCC8)c7)cn6)sc45)ccc3o2)cc1` [Compound 19]: on VEGFR2 (KDR), the IC50 amounted to 12 nM. Take `O=C1CCCN1Cc1ccc(-c2cc3nccc(Oc4ccc5oc(Nc6ccc(Cl)c(C(F)(F)F)c6)nc5c4)c3s2)nc1` [Compound 57]: the IC50 on VEGFR2 (KDR) is 18 nM. Same read-out and setting: as for `CN(C)[C@H]1CCN(C(=O)c2cc3nccc(Oc4ccc5oc(Nc6ccccc6)nc5c4)c3s2)C1` [Compound 61], the figure is 19 nM; as for `COCCN(Cc1ccc(-c2cc3nccc(Oc4ccc5oc(Nc6ccc(Cl)cc6)nc5c4)c3s2)nc1)C(C)=O` [Compound 62], 4 nM. As to `COCCN(Cc1ccc(-c2cc3nccc(Oc4ccc5oc(NC6CC6)nc5c4)c3s2)nc1)C(C)=O` [Compound 63], the IC50 at VEGFR2 (KDR) was 1580 nM. As to `CCn1cc(CN(Cc2ccc(-c3cc4nccc(Oc5ccc6oc(Nc7ccc(Cl)cc7)nc6c5)c4s3)nc2)C(C)C)nn1` [Compound 21, N-(4-Chlorophenyl)-5-(2-(5-((((1-ethyl-1H-1,2,3-triazol-4-yl)methyl)(isopropyl)amino)methyl)pyridin-2-yl)thieno[3,2-b]pyridin-7-yloxy)benzo[d]oxazol-2-amine], the IC50 at VEGFR2 (KDR) worked out at 8 nM. On the same count and under the same terms, under `O=C1CCCN1Cc1ccc(-c2cc3nccc(Oc4ccc5oc(Nc6cccc(Cl)c6)nc5c4)c3s2)nc1` [Compound 49] stands 2 nM; under `CCNC(=O)N(C)C1CCN(Cc2ccc(-c3cc4nccc(Oc5ccc6oc(Nc7ccc(Cl)cc7)nc6c5)c4s3)nc2)CC1` [Compound 15], 7 nM. Consider `COCCN(Cc1ccc(-c2cc3nccc(Oc4ccc5oc(Nc6ccccc6)nc5c4)c3s2)nc1)C(C)=O` [Compound 64], for which the IC50 on VEGFR2 (KDR) is 47 nM.

Take `O=C1CCCN1Cc1ccc(-c2cc3nccc(Oc4ccc5oc(NC6CC6)nc5c4)c3s2)nc1` [Compound 47]: the IC50 in test [1] was 120 nM; on VEGFR2 (KDR), 1560 nM. For the molecule `O=C1CCCN1Cc1ccc(-c2cc3nccc(Oc4ccc5oc(Nc6ccc(F)cc6)nc5c4)c3s2)nc1` [Compound 55], at VEGFR2 (KDR), the IC50 turned out to be 14 nM.

On to `O=C1CCCN1Cc1ccc(-c2cc3nccc(Oc4ccc5nc(Nc6cccc(Cl)c6)oc5c4)c3s2)nc1` [Compound 50], for which the IC50 at VEGFR2 (KDR) was determined as 434 nM.

With `O=C(c1cc2nccc(Oc3ccc4oc(Nc5ccccc5)nc4c3)c2s1)N1CCCCC1` [Compound 59], at VEGFR2 (KDR), the IC50 came out at 240 nM.

Turning to `CN(C(=O)CO)C1CCN(Cc2ccc(-c3cc4nccc(Oc5ccc6oc(Nc7ccc(Cl)cc7)nc6c5)c4s3)nc2)CC1` [Compound 14], the IC50 on VEGFR2 (KDR) turned out to be 5 nM. Regarding `CC(C)(C)OC(=O)N1CCN(Cc2ccc(-c3cc4nccc(Oc5ccc6oc(Nc7ccc(Cl)cc7)nc6c5)c4s3)nc2)CC1` [Compound 65], the IC50 on VEGFR2 (KDR) amounted to 232 nM.

For `O=C1CCCN1Cc1ccc(-c2cc3nccc(Oc4ccc5nc(Nc6ccc(Cl)cc6)oc5c4)c3s2)nc1` [Compound 51], on VEGFR2 (KDR), the IC50 was determined as 278 nM. Turning to `CCNC(=O)NC1CCN(Cc2ccc(-c3cc4nccc(Oc5ccc6oc(Nc7ccc(Cl)cc7)nc6c5)c4s3)nc2)CC1` [Compound 13], the IC50 at VEGFR2 (KDR) is 7 nM. Still for that read-out and setting: as for `O=C(CO)NC1CCN(Cc2ccc(-c3cc4nccc(Oc5ccc6oc(Nc7ccc(Cl)cc7)nc6c5)c4s3)nc2)CC1` [Compound 12, N-(1-((6-(7-(2-(4-Chlorophenylamino)benzo[d]oxazol-5-yloxy)thieno[3,2-b]pyridin-2-yl)pyridin-3-yl)methyl)piperidin-4-yl)-2-hydroxyacetamide], the figure is 6 nM; as for `O=C1CCCN1Cc1ccc(-c2cc3nccc(Oc4ccc5oc(Nc6ccc(Cl)cc6)nc5c4)c3s2)nc1` [Compound 46, 1-((6-(7-(2-(4-Chlorophenylamino)benzo[d]oxazol-5-yloxy)thieno[3,2-b]pyridin-2-yl)pyridin-3-yl)methyl)pyrrolidin-2-one], 5 nM.
